Compound in assay [1]: NC(=O)CCCCC1CCSS1 [lipoamide]
The experiment in a line: thermal stability z-score vs DMSO; higher = more thermally stabilized by treatment. The following applies: HeLa, lipoamide concentration 100 µM. The protocol: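 Cellular thermal proteome profiling in HeLa cells. Cells were treated with 100 µM lipoamide for 1 h, with or without 1 mM arsenate for a further 1 h, then heated to ten temperatures (37-66.3 °C), and soluble protein was quantified by TMT mass spectrometry relative to 0.1% DMSO controls. The thermal stability score (sum of log2 fold changes minus the abundance score) was transformed to a z-score; mean of n = 3 experiments.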

Compound in assay [2]: O=[As]([O-])(O)O.[K+] [potassium arsenate]
Described as above. The following applies: HeLa; arsenate concentration 1 mM. As to the method:
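Cellular thermal proteome profiling in HeLa cells treated with 1 mM arsenate for 1 h (DMSO pretreatment), heated to ten temperatures (37-66.3 °C). Soluble protein was quantified by TMT mass spectrometry relative to DMSO controls; the thermal stability score was transformed to a z-score; mean of n = 3 experiments.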

The mark [3] stands for this setting: arsenate co-treatment: 1 mM arsenate 1 h.
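Note: each temperature applied for 3 min, abundance score taken as mean log2 fold change at the two lowest temperatures, z-score obtained by mean subtraction and division by SD.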

Chain of UniProt P51648 (P51648 whole entry): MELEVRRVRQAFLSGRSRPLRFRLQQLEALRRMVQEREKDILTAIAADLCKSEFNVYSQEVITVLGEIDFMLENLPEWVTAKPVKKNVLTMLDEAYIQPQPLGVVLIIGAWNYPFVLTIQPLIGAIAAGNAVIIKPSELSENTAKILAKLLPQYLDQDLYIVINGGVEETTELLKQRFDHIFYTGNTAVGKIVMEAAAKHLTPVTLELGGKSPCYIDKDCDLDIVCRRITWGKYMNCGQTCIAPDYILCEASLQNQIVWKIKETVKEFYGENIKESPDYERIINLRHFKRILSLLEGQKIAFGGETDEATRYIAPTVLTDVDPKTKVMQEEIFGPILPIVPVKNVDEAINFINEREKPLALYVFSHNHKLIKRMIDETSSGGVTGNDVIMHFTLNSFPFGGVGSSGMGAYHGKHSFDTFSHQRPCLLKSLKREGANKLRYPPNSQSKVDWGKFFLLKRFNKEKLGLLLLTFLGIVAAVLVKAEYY
Chain of UniProt P49770 (P49770 whole entry): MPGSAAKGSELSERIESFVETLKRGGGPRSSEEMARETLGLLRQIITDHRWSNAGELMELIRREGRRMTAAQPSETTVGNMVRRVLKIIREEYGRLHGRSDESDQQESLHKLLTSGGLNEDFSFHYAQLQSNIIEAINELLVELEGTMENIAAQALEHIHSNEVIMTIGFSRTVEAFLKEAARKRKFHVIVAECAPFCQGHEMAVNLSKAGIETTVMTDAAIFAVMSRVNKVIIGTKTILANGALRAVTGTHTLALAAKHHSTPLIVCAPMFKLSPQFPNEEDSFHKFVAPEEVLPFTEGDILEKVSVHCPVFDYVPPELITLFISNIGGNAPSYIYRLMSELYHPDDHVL
Chain of UniProt Q2NKX8 (Q2NKX8 whole entry): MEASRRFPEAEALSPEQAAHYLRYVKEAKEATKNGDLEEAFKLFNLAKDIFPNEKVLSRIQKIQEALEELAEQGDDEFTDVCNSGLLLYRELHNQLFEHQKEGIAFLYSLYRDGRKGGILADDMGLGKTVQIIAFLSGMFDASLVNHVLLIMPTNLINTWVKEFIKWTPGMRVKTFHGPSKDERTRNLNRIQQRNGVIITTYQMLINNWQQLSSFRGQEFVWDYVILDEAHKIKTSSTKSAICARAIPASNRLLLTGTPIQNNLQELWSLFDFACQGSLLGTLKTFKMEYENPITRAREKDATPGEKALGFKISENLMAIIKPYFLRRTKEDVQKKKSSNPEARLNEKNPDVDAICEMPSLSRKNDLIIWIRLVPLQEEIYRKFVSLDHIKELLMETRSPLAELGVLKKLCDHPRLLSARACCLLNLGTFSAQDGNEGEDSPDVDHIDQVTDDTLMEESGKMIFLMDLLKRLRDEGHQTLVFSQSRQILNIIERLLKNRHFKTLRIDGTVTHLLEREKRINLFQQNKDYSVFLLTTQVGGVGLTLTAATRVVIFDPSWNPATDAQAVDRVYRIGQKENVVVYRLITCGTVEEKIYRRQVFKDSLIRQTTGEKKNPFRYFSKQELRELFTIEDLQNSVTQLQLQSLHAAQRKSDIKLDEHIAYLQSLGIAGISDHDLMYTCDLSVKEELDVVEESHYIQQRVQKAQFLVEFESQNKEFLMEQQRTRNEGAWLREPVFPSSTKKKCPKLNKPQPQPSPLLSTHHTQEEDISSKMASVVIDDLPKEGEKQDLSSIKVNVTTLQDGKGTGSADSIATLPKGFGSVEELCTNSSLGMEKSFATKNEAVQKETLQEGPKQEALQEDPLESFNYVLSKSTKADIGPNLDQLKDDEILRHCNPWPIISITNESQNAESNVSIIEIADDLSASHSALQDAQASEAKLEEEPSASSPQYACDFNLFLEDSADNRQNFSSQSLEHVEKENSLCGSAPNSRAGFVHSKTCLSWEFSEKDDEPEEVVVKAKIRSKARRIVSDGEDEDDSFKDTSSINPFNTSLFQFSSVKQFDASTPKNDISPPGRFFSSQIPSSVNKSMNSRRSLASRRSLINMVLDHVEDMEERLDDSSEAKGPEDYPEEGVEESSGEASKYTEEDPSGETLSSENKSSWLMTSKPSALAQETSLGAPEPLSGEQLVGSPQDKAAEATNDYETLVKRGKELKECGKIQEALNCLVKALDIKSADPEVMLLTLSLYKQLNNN
Chain of UniProt O14974 (O14974 whole entry): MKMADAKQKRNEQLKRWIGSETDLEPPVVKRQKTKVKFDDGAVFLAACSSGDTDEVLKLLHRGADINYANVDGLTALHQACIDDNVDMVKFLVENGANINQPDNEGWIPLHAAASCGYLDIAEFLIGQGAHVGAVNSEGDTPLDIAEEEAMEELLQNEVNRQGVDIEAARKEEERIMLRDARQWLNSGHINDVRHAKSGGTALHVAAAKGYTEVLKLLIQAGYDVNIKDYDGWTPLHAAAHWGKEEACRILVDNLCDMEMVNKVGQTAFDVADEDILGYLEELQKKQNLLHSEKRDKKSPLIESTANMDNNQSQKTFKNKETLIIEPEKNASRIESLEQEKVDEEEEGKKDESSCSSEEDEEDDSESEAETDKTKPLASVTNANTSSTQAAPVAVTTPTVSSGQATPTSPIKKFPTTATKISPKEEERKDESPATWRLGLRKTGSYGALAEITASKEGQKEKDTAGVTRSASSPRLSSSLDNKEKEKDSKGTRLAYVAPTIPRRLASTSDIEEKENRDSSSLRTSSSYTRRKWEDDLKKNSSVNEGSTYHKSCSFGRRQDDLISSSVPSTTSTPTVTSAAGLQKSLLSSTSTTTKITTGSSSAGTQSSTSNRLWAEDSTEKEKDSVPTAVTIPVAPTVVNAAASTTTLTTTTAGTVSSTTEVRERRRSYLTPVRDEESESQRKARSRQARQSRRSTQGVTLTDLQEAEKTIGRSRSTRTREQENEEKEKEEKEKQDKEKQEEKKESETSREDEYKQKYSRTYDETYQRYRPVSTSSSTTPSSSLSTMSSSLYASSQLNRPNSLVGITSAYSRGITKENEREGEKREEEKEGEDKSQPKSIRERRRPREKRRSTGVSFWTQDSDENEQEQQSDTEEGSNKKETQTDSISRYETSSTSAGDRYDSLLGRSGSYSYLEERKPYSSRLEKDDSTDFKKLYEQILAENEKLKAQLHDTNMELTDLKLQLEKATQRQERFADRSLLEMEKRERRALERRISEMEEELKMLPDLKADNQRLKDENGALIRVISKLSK
Chain of UniProt Q8WUM4 (Q8WUM4 whole entry): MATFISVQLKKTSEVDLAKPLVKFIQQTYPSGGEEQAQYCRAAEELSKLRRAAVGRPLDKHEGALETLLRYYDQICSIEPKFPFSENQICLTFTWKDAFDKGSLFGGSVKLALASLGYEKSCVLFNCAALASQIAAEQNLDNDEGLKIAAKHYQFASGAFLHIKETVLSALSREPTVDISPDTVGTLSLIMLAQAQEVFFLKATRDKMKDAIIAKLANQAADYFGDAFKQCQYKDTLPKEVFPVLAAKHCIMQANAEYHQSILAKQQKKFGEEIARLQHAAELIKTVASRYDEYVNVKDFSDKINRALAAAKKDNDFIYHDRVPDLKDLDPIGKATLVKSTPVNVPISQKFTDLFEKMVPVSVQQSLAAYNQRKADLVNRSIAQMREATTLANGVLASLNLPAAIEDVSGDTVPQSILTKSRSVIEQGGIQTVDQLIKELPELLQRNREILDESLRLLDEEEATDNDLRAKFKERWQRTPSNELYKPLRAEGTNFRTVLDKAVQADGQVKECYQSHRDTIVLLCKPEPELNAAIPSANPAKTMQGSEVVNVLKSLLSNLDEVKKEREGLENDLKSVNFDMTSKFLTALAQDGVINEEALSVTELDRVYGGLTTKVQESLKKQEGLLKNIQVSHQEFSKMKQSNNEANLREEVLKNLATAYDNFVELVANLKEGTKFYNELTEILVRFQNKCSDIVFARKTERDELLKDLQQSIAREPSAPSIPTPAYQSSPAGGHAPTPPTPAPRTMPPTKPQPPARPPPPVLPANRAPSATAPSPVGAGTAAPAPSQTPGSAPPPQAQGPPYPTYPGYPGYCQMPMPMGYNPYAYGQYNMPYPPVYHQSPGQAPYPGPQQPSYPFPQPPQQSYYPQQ
Chain of UniProt Q9H788 (Q9H788 whole entry, looked up): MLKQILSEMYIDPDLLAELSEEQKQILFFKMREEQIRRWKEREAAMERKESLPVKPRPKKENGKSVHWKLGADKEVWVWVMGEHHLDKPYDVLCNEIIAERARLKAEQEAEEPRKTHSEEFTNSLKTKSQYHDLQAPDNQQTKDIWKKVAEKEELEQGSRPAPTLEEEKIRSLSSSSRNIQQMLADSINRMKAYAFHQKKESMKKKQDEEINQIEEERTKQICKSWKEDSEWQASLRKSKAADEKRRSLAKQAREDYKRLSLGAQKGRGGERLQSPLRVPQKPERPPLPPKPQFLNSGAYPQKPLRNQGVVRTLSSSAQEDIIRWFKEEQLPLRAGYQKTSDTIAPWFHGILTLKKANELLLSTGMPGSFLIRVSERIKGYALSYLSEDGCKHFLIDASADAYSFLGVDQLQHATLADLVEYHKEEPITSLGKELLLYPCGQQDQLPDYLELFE
Chain of UniProt O75818 (O75818 whole entry): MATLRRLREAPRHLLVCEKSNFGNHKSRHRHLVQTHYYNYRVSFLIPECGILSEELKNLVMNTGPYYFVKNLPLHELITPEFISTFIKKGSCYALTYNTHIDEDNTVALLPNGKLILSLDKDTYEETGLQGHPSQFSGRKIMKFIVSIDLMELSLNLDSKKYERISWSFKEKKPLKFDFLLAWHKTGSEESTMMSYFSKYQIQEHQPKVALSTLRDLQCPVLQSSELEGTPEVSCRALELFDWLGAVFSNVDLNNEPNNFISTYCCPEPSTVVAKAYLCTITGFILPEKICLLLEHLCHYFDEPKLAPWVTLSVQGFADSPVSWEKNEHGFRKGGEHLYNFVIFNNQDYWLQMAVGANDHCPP
Chain of UniProt Q9NX40 (Q9NX40 whole entry): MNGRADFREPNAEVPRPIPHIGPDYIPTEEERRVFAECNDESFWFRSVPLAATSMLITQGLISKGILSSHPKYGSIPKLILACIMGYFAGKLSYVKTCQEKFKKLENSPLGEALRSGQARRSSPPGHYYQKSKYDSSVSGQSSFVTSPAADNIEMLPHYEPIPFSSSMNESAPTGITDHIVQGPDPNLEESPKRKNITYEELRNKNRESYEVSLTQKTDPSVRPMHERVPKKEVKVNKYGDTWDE

On to PELP1 (UniProt Q8IZL8), for which the thermal stability z-score in assay [1] (setting [3]) is 1.14; in assay [1] (arsenate co-treatment: none) it was 0.206; in assay [2] it was 0.449.
The like results for MYO1E (UniProt Q12965) were, in that order, 0.918, 0.582 and -0.8.
Consider EXOSC6 (UniProt Q5RKV6), for which the thermal stability z-score was 0.123 in assay [1] (setting [3]), 0.0946 in assay [1] (arsenate co-treatment: none) and -1.85 in assay [2].
The like results for ELMO2 (UniProt Q96JJ3) were, in that order, -0.114, 0.245 and 0.457.
The corresponding values for BPTF (UniProt Q12830) are 0.137, 0.144 and -0.181.
For ZMPSTE24 (UniProt O75844), the thermal stability z-score is 0.105 in assay [1] (setting [3]), -0.234 in assay [1] (arsenate co-treatment: none) and 0.325 in assay [2].
The corresponding values for RASA3 (UniProt Q14644) are 0.0194, 0.0519 and 0.0995.
The corresponding values for MGST1 (UniProt P10620) are 0.304, -0.147 and 0.892.
The corresponding values for NPM3 (UniProt O75607) are 0.175, 0.102 and -0.95.
YIPF4 (UniProt Q9BSR8): the thermal stability z-score in assay [1] (setting [3]) was 0.0431; in assay [1] (arsenate co-treatment: none), -0.44; in assay [2], -0.689.
Turning to HS2ST1 (UniProt Q7LGA3), the thermal stability z-score is 0.123 in assay [1] (setting [3]), -0.171 in assay [1] (arsenate co-treatment: none) and 0.457 in assay [2].
Turning to STBD1 (UniProt O95210), the thermal stability z-score in assay [1] (setting [3]) is -0.616; in assay [1] (arsenate co-treatment: none) it was 0.112; in assay [2], 0.149.
The corresponding values for ALDH3A2 (UniProt P51648) are 1.63, 1.32 and 0.0815.
The like results for CPA4 (UniProt Q9UI42) were, in that order, -0.883, -0.642 and 0.188.
Turning to ERCC6L (UniProt Q2NKX8), the thermal stability z-score is -0.457 in assay [1] (setting [3]), -0.258 in assay [1] (arsenate co-treatment: none) and 0.265 in assay [2].
For SNX1 (UniProt Q13596), the values for the thermal stability z-score in assay [1] (setting [3]), in assay [1] (arsenate co-treatment: none) and in assay [2] were 0.0174, -0.29 and 0.327, respectively.
As for OCIAD1 (UniProt Q9NX40), the thermal stability z-score is 0.0741 in assay [1] (setting [3]), -0.143 in assay [1] (arsenate co-treatment: none) and -0.448 in assay [2].
The corresponding values for RPP40 (UniProt O75818) are 0.705, -0.123 and -1.15.
With GIGYF1 (UniProt O75420), the thermal stability z-score in assay [1] (setting [3]) was determined as 0.0328; in assay [1] (arsenate co-treatment: none), 0.0305; in assay [2] it was 0.0812.
As for CLTB (UniProt P09497), the results for the thermal stability z-score in assay [1] (setting [3]), in assay [1] (arsenate co-treatment: none) and in assay [2] were 1.48, 1.89 and 0.557, respectively.
For COPS6 (UniProt Q7L5N1), the thermal stability z-score in assay [1] (setting [3]) was 0.0852; in assay [1] (arsenate co-treatment: none), -0.522; in assay [2], -0.236.
On to DHX8 (UniProt Q14562), for which the thermal stability z-score in assay [1] (setting [3]) turned out to be 0.819; in assay [1] (arsenate co-treatment: none), 0.167; in assay [2], 0.449.
MICALL1 (UniProt Q8N3F8): the thermal stability z-score in assay [1] (setting [3]) is -0.217; in assay [1] (arsenate co-treatment: none), 0.212; in assay [2] it was -0.602.
The like results for ASAP2 (UniProt O43150) were, in that order, -0.641, -0.527 and -0.394.
Turning to ARHGEF10 (UniProt O15013), the values for the thermal stability z-score in assay [1] (setting [3]), in assay [1] (arsenate co-treatment: none) and in assay [2] were -0.746, -0.324 and 0.964, respectively.
The corresponding values for ASCC3 (UniProt Q8N3C0) are -0.289, -0.167 and -0.277.
In the case of KBTBD2 (UniProt Q8IY47), the thermal stability z-score in assay [1] (setting [3]) was -0.0161; in assay [1] (arsenate co-treatment: none), -0.0919; in assay [2] it was -0.0698.
The corresponding values for PDE8A (UniProt O60658) are 0.244, 0.225 and 0.167.
The like results for TMEM30A (UniProt Q9NV96) were, in that order, -0.45, -0.161 and -0.845.
SH2D4A (UniProt Q9H788): the thermal stability z-score in assay [1] (setting [3]) came out at 0.0871; in assay [1] (arsenate co-treatment: none), 0.021; in assay [2], 0.112.
The like results for PON2 (UniProt Q15165) were, in that order, -4.17, -3.42 and 0.478.
Take TMEM209 (UniProt Q96SK2): the thermal stability z-score in assay [1] (setting [3]) is -0.644; in assay [1] (arsenate co-treatment: none), 0.109; in assay [2], 1.25.
The corresponding values for RPSA (UniProt P08865) are 0.555, 0.847 and -1.42.
With PPIE (UniProt Q9UNP9), the thermal stability z-score in assay [1] (setting [3]) came out at 0.246; in assay [1] (arsenate co-treatment: none) it was 0.0366; in assay [2] it was 0.128.
As for EIF2B2 (UniProt P49770), the thermal stability z-score turned out to be 1.07 in assay [1] (setting [3]), 0.55 in assay [1] (arsenate co-treatment: none) and 0.643 in assay [2].
The like results for RIPK2 (UniProt O43353) were, in that order, -0.255, 0.45 and -0.644.
The like results for ARID4B (UniProt Q4LE39) were, in that order, 0.0389, 0.0738 and -0.419.
The like results for PPP1R12A (UniProt O14974) were, in that order, 1.32, 0.52 and 0.979.
On to RALGPS2 (UniProt Q86X27), for which the thermal stability z-score was -0.0453 in assay [1] (setting [3]), 0.191 in assay [1] (arsenate co-treatment: none) and -0.177 in assay [2].
For PDCD6IP (UniProt Q8WUM4), the thermal stability z-score in assay [1] (setting [3]) was 1.3; in assay [1] (arsenate co-treatment: none), 1.06; in assay [2], 2.4.
The corresponding values for GIGYF2 (UniProt Q6Y7W6) are -0.406, -0.109 and 0.0976.
The like results for MTIF3 (UniProt Q9H2K0) were, in that order, 0.621, 0.197 and 0.55.
